Among the test systems are NCI/ADR-RES ovarian; TK-10 renal; HL-60(TB) leukemia; T-47D breast; NCI-H23 lung; ACHN renal; SF-539 CNS; COLO 205 colon; KM12 colon; MOLT-4 leukemia.
Assay in all cases: inhibition of tumour cell growth, NCI panel, 48 h

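Cells were grown in 96-well plates and exposed to each compound for 48 hours at five concentrations; endpoints were interpolated linearly between bracketing concentrations, or set to the highest concentration if not reached. GI50 is the concentration that inhibits growth by half. At the TGI there is no net growth.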

Consider `O=C(Nc1ccc(-n2cc(-c3ccncc3)c(-c3ccc(O)c(Cl)c3)n2)cc1)Nc1ccc(Cl)c(C(F)(F)F)c1`, for which the GI50 was 4.1 µM with NCI/ADR-RES ovarian; 2.71 µM with TK-10 renal; 2.54 µM in the assay on HL-60(TB) leukemia; 8.61 µM with T-47D breast; 3.56 µM with NCI-H23 lung; 2.66 µM in the assay on ACHN renal. For the same compound, the GI50 in the assay with SF-539 CNS was 2.58 µM; in the assay on COLO 205 colon it was 6.23 µM; in the assay with KM12 colon it was 3.8 µM; in the assay with MOLT-4 leukemia it was 3.18 µM. Further, the TGI was 52.7 µM in the assay on NCI/ADR-RES ovarian; 9.78 µM in the assay on TK-10 renal; 6.27 µM with HL-60(TB) leukemia; 64.1 µM in the assay on T-47D breast; 22 µM in the assay with NCI-H23 lung; 9.42 µM with ACHN renal. In addition, the TGI in the assay on SF-539 CNS was 12.5 µM; in the assay on COLO 205 colon, 22.9 µM; in the assay with KM12 colon it was 12.8 µM; with MOLT-4 leukemia, 16.4 µM.

On to `C#C/C=C\CCCCCCCCCCCCCC/C=C\CCCCC#CC(O)C#CCCCC/C=C\CCCCCC/C=C/C(O)C#C` (stereo not given), for which the TGI was above 75 µM in the assay with NCI/ADR-RES ovarian; above 49 µM in the assay on TK-10 renal; 43.6 µM with HL-60(TB) leukemia; 26 µM with T-47D breast; above 42.6 µM in the assay on NCI-H23 lung; above 75 µM in the assay with ACHN renal. Also, the TGI with SF-539 CNS was above 75 µM; with COLO 205 colon, 35.6 µM; in the assay with KM12 colon it was 20.1 µM; with MOLT-4 leukemia, above 68 µM.

For the compound `O=[N+]([O-])c1ccc(Oc2c(Cl)cc(S(=O)(=O)/N=C(\NO)Nc3ccc(Cl)cc3)cc2Cl)c(Cl)c1`, the TGI was 51.4 µM in the assay on NCI/ADR-RES ovarian; 29.7 µM in the assay on TK-10 renal; 51.7 µM in the assay with HL-60(TB) leukemia; 67.7 µM with T-47D breast; 34.5 µM with NCI-H23 lung; 28.2 µM with ACHN renal. For the same compound, the TGI in the assay with SF-539 CNS was determined as 36.7 µM; with COLO 205 colon, 35.5 µM; with KM12 colon, 28.4 µM; in the assay with MOLT-4 leukemia it was 25.6 µM.

For `CC(Oc1ccccc1Cl)C(=O)NN1C(=O)CC(=O)NC1=S` (stereo not given), the TGI with NCI/ADR-RES ovarian, with TK-10 renal, in the assay on HL-60(TB) leukemia, in the assay on T-47D breast, with NCI-H23 lung and in the assay on ACHN renal was above 100 µM in each case. Besides, the TGI in the assay with SF-539 CNS, in the assay with COLO 205 colon, with KM12 colon and with MOLT-4 leukemia was above 100 µM in each case.

Turning to `O=C(O)c1cc(=O)c2c(OCC(O)COc3cccc4oc(C(=O)O)cc(=O)c34)cccc2o1`, the TGI with NCI/ADR-RES ovarian, in the assay on TK-10 renal, in the assay on HL-60(TB) leukemia, with T-47D breast, with NCI-H23 lung and in the assay with ACHN renal was above 100 µM each time. Besides, the TGI in the assay with SF-539 CNS, with COLO 205 colon, with KM12 colon and in the assay with MOLT-4 leukemia was above 100 µM each time.

`Cc1ccc([N+](=O)[O-])cc1S(=O)(=O)Nc1ccc(C2=NOC(c3cccs3)C2)cc1` (stereo not given): the TGI in the assay with NCI/ADR-RES ovarian amounted to 41.1 µM; in the assay with TK-10 renal, 50.3 µM; with HL-60(TB) leukemia, 25.7 µM; with T-47D breast, 50.5 µM; in the assay with NCI-H23 lung, 73.4 µM; in the assay on ACHN renal it was 46.3 µM. Moreover, the TGI in the assay on SF-539 CNS is 56.5 µM; in the assay with COLO 205 colon, above 100 µM; in the assay on KM12 colon, 29.1 µM; in the assay on MOLT-4 leukemia, 22.3 µM.

As to `COc1cc2c(cc1OCCCOS(C)(=O)=O)N=C[C@@H]1CCCN1C2=O`, the TGI in the assay on NCI/ADR-RES ovarian, with TK-10 renal, with HL-60(TB) leukemia, with T-47D breast, in the assay on NCI-H23 lung and with ACHN renal was above 100 µM in each case. Also, the TGI in the assay on SF-539 CNS, in the assay on COLO 205 colon, in the assay with KM12 colon and in the assay on MOLT-4 leukemia was above 100 µM each time.

As to `OCCCNc1ncnc2[nH]ncc12`, the TGI in the assay on NCI/ADR-RES ovarian, in the assay with TK-10 renal, in the assay on HL-60(TB) leukemia, with T-47D breast, in the assay on NCI-H23 lung and in the assay on ACHN renal was above 100 µM in each case. The TGI in the assay with SF-539 CNS, in the assay on COLO 205 colon, in the assay with KM12 colon and with MOLT-4 leukemia was above 100 µM each time.
